Drawing on patent US20260250289A1, “BICYCLIC HETEROCYCLES AND THEIR USE AS WRN INHIBITORS” (Novartis AG, priority 2022, published 2026), this text covers IC50 and GI50 for 8 molecules.

Structures are written as SMILES. pIC50: −log10 of the molar value. Where only a bound is given, the exact number is not on record here.

Assay [1] has as its target T1, WRN helicase (aa N517-P1238) (Homo sapiens, UniProt Q14191).
T1 construct: The core helicase motif of the WRN protein (aa N517-P1238) was produced for this assay; His (N); ZZ (N); 3C protease cleavage site (N); made in house; host or cells: Sf21 insect cells (baculovirus; virus and BIICs made in SF9)
Kind of assay: WRN ATPase assay (DNA dependent ATP hydrolysis, ADP-Glo). The format is biochemical. As to conditions: 3 hours pre-incubation, 300 micromolar ATP, FLAP26 DNA; geometric mean of at least 2. An outline of the steps:
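DNA-dependent ATP hydrolysis detected as ADP by ADP-Glo luminescence, using 300 μM ATP, 0.2 nM FLAP26 substrate and 10 nM WRN aa N517-P1238 (Tris pH 7.5 buffer, 2 mM MgCl2, 50 mM NaCl). IC50s fitted from normalized duplicate half-log dilutions; reported as geometric means of at least 2 replicates.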
A general note: ADP-Glo turns the ADP formed in a reaction into a luminescent signal.

The test system of another assay is SW48 cells. The assay is described as follows: Proliferation assay SW48 (CellTiterGlo). As to conditions: Homo sapiens, SW48, 96 h, SW48 colon carcinoma cells, 96 hours, CellTiterGlo; geometric mean of at least 2; read-out: Proliferation Assay SW48 GI50. The format is cell-based. An outline of the steps:
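SW48 cells, 2,000/well, treated after overnight seeding with eight 3-fold compound dilutions (0.1% DMSO) for 96 hours at 37° C. Viability read as ATP by CellTiterGlo luminescence, normalised to a day-0 plate and vehicle to give % growth; GI50 is geometric mean of ≥2 independent replicates.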
For orientation: ATP-based viability assays read luminescence as a measure of living cells.

A further assay deals with DLD1-WRN-KO cells. The assay is described as follows: Proliferation assay DLD1-WRN-KO (CellTiterGlo, off-target effects). The format is cell-based. As to conditions: 96 hours, geometric mean of at least 2. An outline of the steps:
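DLD1 cells with CRISPR knockout of WRN were exposed overnight-seeded to eight 3-fold compound dilutions (0.1% DMSO) for 96 h at 37 °C. Viability was read as ATP by CellTiterGlo luminescence against a day-0 plate, giving GI50 and residual viability at top concentration.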

T1 sequence (Q14191 517-1238): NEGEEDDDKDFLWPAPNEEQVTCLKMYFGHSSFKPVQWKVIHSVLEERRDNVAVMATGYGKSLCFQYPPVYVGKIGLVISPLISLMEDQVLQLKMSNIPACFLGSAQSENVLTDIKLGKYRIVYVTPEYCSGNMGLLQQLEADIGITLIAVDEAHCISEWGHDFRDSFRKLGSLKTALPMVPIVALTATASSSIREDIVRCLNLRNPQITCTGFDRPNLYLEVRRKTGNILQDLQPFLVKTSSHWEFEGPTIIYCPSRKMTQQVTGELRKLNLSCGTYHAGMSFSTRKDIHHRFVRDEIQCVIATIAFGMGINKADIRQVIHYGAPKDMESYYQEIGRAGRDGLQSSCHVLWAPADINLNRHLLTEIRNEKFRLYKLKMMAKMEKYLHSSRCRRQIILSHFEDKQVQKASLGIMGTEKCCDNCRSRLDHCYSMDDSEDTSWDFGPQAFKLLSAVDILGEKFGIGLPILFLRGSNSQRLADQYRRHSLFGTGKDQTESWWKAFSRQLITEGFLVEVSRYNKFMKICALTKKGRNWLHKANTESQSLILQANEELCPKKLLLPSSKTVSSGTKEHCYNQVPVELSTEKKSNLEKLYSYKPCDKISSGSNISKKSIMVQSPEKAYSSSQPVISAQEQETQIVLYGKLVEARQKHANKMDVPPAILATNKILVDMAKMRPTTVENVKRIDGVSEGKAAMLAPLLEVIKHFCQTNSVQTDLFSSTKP

For the molecule `CC(=O)N1CCN(c2c(C)n(CC(=O)Nc3ccc(S(F)(F)(F)(F)F)cc3Cl)c3nc(C4=CCOCC4)nn3c2=O)CC1` [Example 73, 2-(6-(4-acetylpiperazin-1-yl)-2-(3,6-dihydro-2H-pyran-4-yl)-5-methyl-7-oxo-[1,2,4]triazolo[1,5-a]pyrimidin-4(7H)-yl)-N-(2-chloro-4-(pentafluoro-l6-sulfaneyl)phenyl)acetamide], the pIC50 (as a rule, −log10 of the IC50, conventionally taken in molar units) in assay [1] was 7.00. In addition, the GI50 was 2000 nM in the assay on SW48 cells and > 10 µM in the assay on DLD1-WRN-KO cells.

The molecule `COC(=O)N1CC=C(c2nc3n(CC(=O)Nc4ccc(Cl)c(C(F)(F)F)c4)c(C)c(N4CCN(C(C)=O)CC4)c(=O)n3n2)CC1` [Example 77, methyl 4-(6-(4-acetylpiperazin-1-yl)-4-(2-((4-chloro-3-(trifluoromethyl)phenyl)amino)-2-oxoethyl)-5-methyl-7-oxo-4,7-dihydro-[1,2,4]triazolo[1,5-a]pyrimidin-2-yl)-5,6-dihydropyridine-1(2H)-carboxylate] gave a negative logarithm of the IC50 (pIC50) in assay [1] of 6.70. The GI50 is 4000 nM in the assay with SW48 cells and > 10 µM in the assay with DLD1-WRN-KO cells.

The molecule `CC(=O)N1CCN(c2c(C)n(CC(=O)Nc3ccc(S(F)(F)(F)(F)F)cc3)c3nc(C4=CCOCC4)nn3c2=O)CC1` [Example 78, 2-(6-(4-acetylpiperazin-1-yl)-2-(3,6-dihydro-2H-pyran-4-yl)-5-methyl-7-oxo-[1,2,4]triazolo[1,5-a]pyrimidin-4(7H)-yl)-N-(4-(pentafluoro-l6-sulfaneyl)phenyl)acetamide] gave a pIC50 in assay [1] of 6.70. The GI50 in the assay with SW48 cells was 3000 nM; in the assay with DLD1-WRN-KO cells it was > 10 µM.

In the case of `CC(=O)N1CCN(c2c(C)n(CC(=O)Nc3ccc(Cl)cc3)c3nc(C4=CCCCO4)nn3c2=O)CC1` [Example 79, 2-(6-(4-acetylpiperazin-1-yl)-2-(3,4-dihydro-2H-pyran-6-yl)-5-methyl-7-oxo-[1,2,4]triazolo[1,5-a]pyrimidin-4(7H)-yl)-N-(4-chlorophenyl)acetamide], the pIC50 in assay [1] is 6.70. The GI50 with SW48 cells is 5000 nM; in the assay with DLD1-WRN-KO cells, > 10 µM.

With `CC(=O)N1CCN(c2c(C)n(CC(=O)Nc3cc(C(F)(F)F)c(Cl)cc3C)c3nc(C4=CCOCC4)nn3c2=O)CC1` [Example 80, 2-(6-(4-acetylpiperazin-1-yl)-2-(3,6-dihydro-2H-pyran-4-yl)-5-methyl-7-oxo-[1,2,4]triazolo[1,5-a]pyrimidin-4(7H)-yl)-N-(4-chloro-2-methyl-5-(trifluoromethyl)phenyl)acetamide], the pIC50 in assay [1] was 6.52. Further, the GI50 with SW48 cells was 800 nM; in the assay with DLD1-WRN-KO cells it was > 10 µM.

Molecule `COC(=O)N1CCN(c2nc3n(CC(=O)Nc4ccc(S(F)(F)(F)(F)F)cc4)c(C)c(N4CCN(C(C)=O)CC4)c(=O)n3n2)CC1` [Example 81, methyl 4-(6-(4-acetylpiperazin-1-yl)-5-methyl-7-oxo-4-(2-oxo-2-((4-(pentafluoro-l6-sulfaneyl)phenyl)amino)ethyl)-4,7-dihydro-[1,2,4]triazolo[1,5-a]pyrimidin-2-yl)piperazine-1-carboxylate] gave a pIC50 in assay [1] of 6.52. Besides, the GI50 is 4000 nM in the assay on SW48 cells and > 10 µM in the assay with DLD1-WRN-KO cells.

With `[2H]C([2H])(C(=O)Nc1ccc(C(F)(F)F)cc1)n1c(CC)c(N2CCN(C(C)=O)CC2)c(=O)n2nc(C3=CCOCC3)nc12` [Example 82, 2-(6-(4-acetylpiperazin-1-yl)-2-(3,6-dihydro-2H-pyran-4-yl)-5-ethyl-7-oxo-[1,2,4]triazolo[1,5-a]pyrimidin-4(7H)-yl)-N-(4-(trifluoromethyl)phenyl)acetamide-2,2-d2], the negative-log IC50 (pIC50) in assay [1] was 6.52. Further, the GI50 in the assay with SW48 cells is 2000 nM; with DLD1-WRN-KO cells, > 10 µM.

Molecule `CC(=O)N1CCN(c2c(C)n(CC(=O)Nc3cc(F)c(C(F)(F)F)cc3C)c3nc(C4=CCOCC4)nn3c2=O)CC1` [Example 83, 2-(6-(4-acetylpiperazin-1-yl)-2-(3,6-dihydro-2H-pyran-4-yl)-5-methyl-7-oxo-[1,2,4]triazolo[1,5-a]pyrimidin-4(7H)-yl)-N-(5-fluoro-2-methyl-4-(trifluoromethyl)phenyl)acetamide] had a pIC50 in assay [1] of 6.52. For the same molecule, the GI50 is 2000 nM in the assay on SW48 cells and > 10 µM in the assay with DLD1-WRN-KO cells.
